Assay results published in patent US11090304B2 (Amgen Inc., priority 2018, dated 2021).
Where two headings read alike, the source gives them in different places.

Tests used:
[1] = tested on: Phosphorylation of ERK1/2 in MIA PaCa-2 cells; assay: Phospho-ERK1/2 MSD assay in MIA PaCa-2 cells; type: cell-based; conditions: Homo sapiens, read-out: p-ERK IC50 (2 h; MIA PaCa-2), 2 h compound treatment
Procedure, shortened: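 MIA PaCa-2 or A549 cells were treated with a compound dose-response titration for 2 or 4 h at 37 °C, then stimulated with 10 ng/mL EGF for 10 min. Phospho-ERK1/2 in RIPA lysates was measured by MSD whole-cell lysate immunoassay, and IC50 came from a 4-parameter logistic fit.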

[2] = target: GDP-bound KRAS protein (aa 1-169), containing both G12C and C118A amino acid substitutions (Homo sapiens, UniProt P01116, C118A/G12C); assay: Coupled nucleotide exchange assay (SOS-mediated, AlphaScreen); type: biochemical; conditions: 5 min compound pre-incubation
Chain of GDP-bound KRAS protein (aa 1-169), containing both G12C and C118A amino acid substitutions (P01116 1-169 isoform P01116-2 G12C/C118A): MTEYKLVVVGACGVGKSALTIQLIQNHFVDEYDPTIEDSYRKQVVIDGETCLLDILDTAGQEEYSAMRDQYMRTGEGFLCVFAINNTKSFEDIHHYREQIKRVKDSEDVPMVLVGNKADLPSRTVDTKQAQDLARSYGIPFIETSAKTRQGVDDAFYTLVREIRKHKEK

`C=CC(=O)N1CCN(c2nc(=O)n(-c3c(C)ccnc3C(C)C)c3nc(-c4cc(O)cc(Cl)c4Cl)c(F)cc23)[C@@H](C)C1` [Example 58-7, 7-(2,3-dichloro-5-hydroxyphenyl)-6-fluoro-1-(4-methyl-2-(2-propanyl)-3-pyridinyl)-4-((2S)-2-methyl-4-(2-propenoyl)-1-piperazinyl)pyrido[2,3-d]pyrimidin-2(1H)-one] was tested, and the IC50 ([1]; MIA PaCa-2, 2 h) was 1990 nM and the “Coupled exchange IC50 (5 min)” value [2] was 0.072 | nda μM.

With `C=CC(=O)N1CCN(c2nc(=O)n(-c3c(C)ccnc3C(C)C)c3nc(-c4cc(N)ccc4Cl)c(F)cc23)[C@@H](C)C1` [Example 58-8, 7-(5-amino-2-chlorophenyl)-6-fluoro-1-(4-methyl-2-(2-propanyl)-3-pyridinyl)-4-((2S)-2-methyl-4-(2-propenoyl)-1-piperazinyl)pyrido[2,3-d]pyrimidin-2(1H)-one] the IC50 ([1]; MIA PaCa-2, 2 h) was 437 nM and the “Coupled exchange IC50 (5 min)” value [2] was 0.393 | nda μM.

With `C=CC(=O)N1CCN(c2nc(=O)n(-c3c(C)ccnc3C(C)C)c3nc(-c4c(O)cccc4Cl)c(F)cc23)[C@@H](C)C1` [Example 58-9, 7-(2-chloro-6-hydroxyphenyl)-6-fluoro-1-(4-methyl-2-(2-propanyl)-3-pyridinyl)-4-((2S)-2-methyl-4-(2-propenoyl)-1-piperazinyl)pyrido[2,3-d]pyrimidin-2(1H)-one] the IC50 ([1]; MIA PaCa-2, 2 h) was 220 nM and the “Coupled exchange IC50 (5 min)” value [2] was 0.095 | nda μM.

With `C=CC(=O)N1CCN(c2nc(=O)n(-c3c(C)ccnc3C(C)C)c3nc(-c4ccc(F)cc4F)c(F)cc23)[C@@H](C)C1` [Example 58-10, 7-(2,4-difluorophenyl)-6-fluoro-1-(4-methyl-2-(2-propanyl)-3-pyridinyl)-4-((2S)-2-methyl-4-(2-propenoyl)-1-piperazinyl)pyrido[2,3-d]pyrimidin-2(1H)-one] the IC50 ([1]; MIA PaCa-2, 2 h) was 433 nM and the “Coupled exchange IC50 (5 min)” value [2] was 0.445 | nda μM.

With `C=CC(=O)N1CCN(c2nc(=O)n(-c3c(C)ncnc3C(C)C)c3nc(-c4ccccc4F)c(F)cc23)[C@@H](C)C1` [Example 58-12, 6-fluoro-7-(2-fluorophenyl)-1-(4-methyl-6-(2-propanyl)-5-pyrimidinyl)-4-((2S)-2-methyl-4-(2-propenoyl)-1-piperazinyl)pyrido[2,3-d]pyrimidin-2(1H)-one] the IC50 ([1]; MIA PaCa-2, 2 h) was 508 nM and the “Coupled exchange IC50 (5 min)” value [2] was 0.953 | nda μM.

`C=CC(=O)N1CCN(c2nc(=O)n(-c3c(C)cccc3C3CC3)c3nc(-c4c(O)cccc4F)c(F)cc23)[C@@H](C)C1` [Example 58-13, 1-(2-cyclopropyl-6-methylphenyl)-6-fluoro-7-(2-fluoro-6-hydroxyphenyl)-4-((2S)-2-methyl-4-(2-propenoyl)-1-piperazinyl)pyrido[2,3-d]pyrimidin-2(1H)-one] was tested, and the IC50 ([1]; MIA PaCa-2, 2 h) was 263 nM and the “Coupled exchange IC50 (5 min)” value [2] was 0.809 | nda μM.

With `C=CC(=O)N1CCN(c2nc(=O)n(-c3c(C(C)C)ccnc3C)c3nc(-c4ccccc4F)c(F)cc23)[C@@H](C)C1` [Example 58-16, 6-fluoro-7-(2-fluorophenyl)-1-(2-methyl-4-(2-propanyl)-3-pyridinyl)-4-((2S)-2-methyl-4-(2-propenoyl)-1-piperazinyl)pyrido[2,3-d]pyrimidin-2(1H)-one] the IC50 ([1]; MIA PaCa-2, 2 h) was 556 nM and the “Coupled exchange IC50 (5 min)” value [2] was 0.553 | nda μM.

For `C=CC(=O)N1CCN(c2nc(=O)n(-c3c(C4CC4)ccnc3C)c3nc(-c4c(O)cccc4F)c(F)cc23)[C@@H](C)C1` [Example 58-19, 1-(4-cyclopropyl-2-methyl-3-pyridinyl)-6-fluoro-7-(2-fluoro-6-hydroxyphenyl)-4-((2S)-2-methyl-4-(2-propenoyl)-1-piperazinyl)pyrido[2,3-d]pyrimidin-2(1H)-one], the IC50 ([1]; MIA PaCa-2, 2 h) was 957 nM and the “Coupled exchange IC50 (5 min)” value [2] was 0.44 | nda μM.

For `C=CC(=O)N1CCN(c2nc(=O)n(-c3c(CC)ncnc3CC)c3nc(-c4c(O)cccc4F)c(F)cc23)[C@@H](C)C1` [Example 58-23, 1-(4,6-diethyl-5-pyrimidinyl)-6-fluoro-7-(2-fluoro-6-hydroxyphenyl)-4-((2S)-2-methyl-4-(2-propenoyl)-1-piperazinyl)pyrido[2,3-d]pyrimidin-2(1H)-one], the IC50 ([1]; MIA PaCa-2, 2 h) was 894 nM and the “Coupled exchange IC50 (5 min)” value [2] was 0.732 | nda μM.

`C=CC(=O)N1CCN(c2nc(=O)n(-c3c(F)cccc3C(C)C)c3nc(-c4c(O)cccc4F)c(F)cc23)[C@@H](C)C1` [Example 59-2, 6-fluoro-7-(2-fluoro-6-hydroxyphenyl)-1-(2-fluoro-6-(2-propanyl)phenyl)-4-((2S)-2-methyl-4-(2-propenoyl)-1-piperazinyl)pyrido[2,3-d]pyrimidin-2(1H)-one] was tested, and the IC50 ([1]; MIA PaCa-2, 2 h) was 737 nM and the “Coupled exchange IC50 (5 min)” value [2] was 0.257 | nda μM.

In the case of `C=CC(=O)N1CCN(c2nc(=O)n(-c3c(F)cccc3C(C)C)c3nc(-c4ccccc4F)c(F)cc23)[C@@H](C)C1` [Example 59-3, 6-fluoro-7-(2-fluorophenyl)-1-(2-fluoro-6-(2-propanyl)phenyl)-4-((2S)-2-methyl-4-(2-propenoyl)-1-piperazinyl)pyrido[2,3-d]pyrimidin-2(1H)-one], the IC50 ([1]; MIA PaCa-2, 2 h) is reported as 619 nM and the “Coupled exchange IC50 (5 min)” value [2] is reported as 0.521 | nda μM.

With `C=CC(=O)N1CCN(c2nc(=O)n(-c3c(C4CC4)ncnc3C3CC3)c3nc(-c4c(O)cccc4F)c(F)cc23)[C@@H](C)C1` [Example 59-4, 1-(4,6-dicyclopropyl-5-pyrimidinyl)-6-fluoro-7-(2-fluoro-6-hydroxyphenyl)-4-((2S)-2-methyl-4-(2-propenoyl)-1-piperazinyl)pyrido[2,3-d]pyrimidin-2(1H)-one] the IC50 ([1]; MIA PaCa-2, 2 h) was 163 nM and the “Coupled exchange IC50 (5 min)” value [2] was 0.133 | nda μM.

`C=CC(=O)N1CCN(c2nc(=O)n(-c3nccnc3C3CC3)c3nc(-c4c(O)cccc4F)c(F)cc23)[C@@H](C)C1` [Example 59-6, 1-(3-cyclopropyl-2-pyrazinyl)-6-fluoro-7-(2-fluoro-6-hydroxyphenyl)-4-((2S)-2-methyl-4-(2-propenoyl)-1-piperazinyl)pyrido[2,3-d]pyrimidin-2(1H)-one] was tested, and the IC50 ([1]; MIA PaCa-2, 2 h) was 659 nM and the “Coupled exchange IC50 (5 min)” value [2] was 0.932 | nda μM.

With `C=CC(=O)N1CCN(c2nc(=O)n(-c3ncccc3C3CC3)c3nc(-c4ccccc4F)c(Cl)cc23)[C@@H](C)C1` [Example 60-1, 6-Chloro-1-(3-cyclopropyl-2-pyridinyl)-7-(2-fluorophenyl)-4-((2S)-2-methyl-4-(2-propenoyl)-1-piperazinyl)pyrido[2,3-d]pyrimidin-2(1H)-one] the IC50 ([1]; MIA PaCa-2, 2 h) was 204 nM and the “Coupled exchange IC50 (5 min)” value [2] was 0.422 | nda μM.

In the case of `C=CC(=O)N1CCN(c2nc(=O)n(C3CCC34CCCC4)c3nc(-c4c(O)cccc4F)c(Cl)cc23)[C@@H](C)C1` (stereo partly drawn) [Example 60-9, 6-chloro-7-(2-fluoro-6-hydroxyphenyl)-4-((2S)-2-methyl-4-(2-propenoyl)-1-piperazinyl)-1-(spiro[3.4]octan-1-yl)pyrido[2,3-d]pyrimidin-2(1H)-one], the IC50 ([1]; MIA PaCa-2, 2 h) is reported as 1600 nM and the “Coupled exchange IC50 (5 min)” value [2] is reported as 0.484 | nda μM.

With `C=CC(=O)N1CCN(c2nc(=O)n(-c3nccnc3C3CC3)c3nc(-c4ccccc4F)c(Cl)cc23)[C@@H](C)C1` [Example 60-10, 6-chloro-1-(3-cyclopropyl-2-pyrazinyl)-7-(2-fluorophenyl)-4-((2S)-2-methyl-4-(2-propenoyl)-1-piperazinyl)pyrido[2,3-d]pyrimidin-2(1H)-one] the IC50 ([1]; MIA PaCa-2, 2 h) was 156 nM and the “Coupled exchange IC50 (5 min)” value [2] was 0.328 | nda μM.

`C=CC(=O)N1CCN(c2nc(=O)n(-c3c(OC)cccc3C(C)C)c3nc(-c4ccccc4F)c(Cl)cc23)[C@@H](C)C1` [Example 60-19, 6-chloro-7-(2-fluorophenyl)-1-(2-methoxy-6-(2-propanyl)phenyl)-4-((2S)-2-methyl-4-(2-propenoyl)-1-piperazinyl)pyrido[2,3-d]pyrimidin-2(1H)-one] was tested, and the IC50 ([1]; MIA PaCa-2, 2 h) was 156 nM and the “Coupled exchange IC50 (5 min)” value [2] was 0.137 | nda μM.

For `C=CC(=O)N1CCN(c2nc(=O)n(-c3c(C#N)cccc3C(C)C)c3nc(-c4ccccc4F)c(Cl)cc23)[C@@H](C)C1` [Example 60-20, 2-(6-chloro-7-(2-fluorophenyl)-4-((2S)-2-methyl-4-(2-propenoyl)-1-piperazinyl)-2-oxopyrido[2,3-d]pyrimidin-1(2H)-yl)-3-(2-propanyl)benzonitrile], the IC50 ([1]; MIA PaCa-2, 2 h) was 62 nM and the “Coupled exchange IC50 (5 min)” value [2] was 0.053 | nda μM.

For `C=CC(=O)N1CCN(c2nc(=O)n(-c3scnc3CC)c3nc(-c4ccccc4F)c(Cl)cc23)[C@@H](C)C1` [Example 60-21, 6-chloro-1-(4-ethyl-1,3-thiazol-5-yl)-7-(2-fluorophenyl)-4-((2S)-2-methyl-4-(2-propenoyl)-1-piperazinyl)pyrido[2,3-d]pyrimidin-2(1H)-one], the IC50 ([1]; MIA PaCa-2, 2 h) was 334 nM and the “Coupled exchange IC50 (5 min)” value [2] was 0.35 | nda μM.

For `C=CC(=O)N1CCN(c2nc(=O)n(-c3scnc3CC)c3nc(-c4c(O)cccc4F)c(Cl)cc23)[C@@H](C)C1` [Example 60-22, 6-chloro-1-(4-ethyl-1,3-thiazol-5-yl)-7-(2-fluoro-6-hydroxyphenyl)-4-((2S)-2-methyl-4-(2-propenoyl)-1-piperazinyl)pyrido[2,3-d]pyrimidin-2(1H)-one], the IC50 ([1]; MIA PaCa-2, 2 h) was 433 nM and the “Coupled exchange IC50 (5 min)” value [2] was 0.159 | nda μM.

With `C=CC(=O)N1CCN(c2nc(=O)n(-c3ncccc3C(C)C)c3nc(-c4ccccc4F)c(Cl)cc23)[C@@H](C)C1` [Example 60-28, 6-chloro-7-(2-fluorophenyl)-4-((2S)-2-methyl-4-(2-propenoyl)-1-piperazinyl)-1-(3-(2-propanyl)-2-pyridinyl)pyrido[2,3-d]pyrimidin-2(1H)-one] the IC50 ([1]; MIA PaCa-2, 2 h) was 45 nM and the “Coupled exchange IC50 (5 min)” value [2] was 0.101 | nda μM.

`C=CC(=O)N1CCN(c2nc(=O)n(-c3c(C4CC4)ncnc3C3CC3)c3nc(-c4c(O)cccc4F)c(Cl)cc23)[C@@H](C)C1` [Example 60-29, 6-chloro-1-(4,6-dicyclopropyl-5-pyrimidinyl)-7-(2-fluoro-6-hydroxyphenyl)-4-((2S)-2-methyl-4-(2-propenoyl)-1-piperazinyl)pyrido[2,3-d]pyrimidin-2(1H)-one] gave an IC50 [1] of 36 nM and an IC50 ([2]; read-out: Coupled exchange IC50 (5 min)) of 34 nM.
